Consider one cell line from the supplement of paper PMC10307832.

What all share (assay): relative viability (nuclei count vs DMSO), 5 days (fraction); higher = more cells survive
Compound in the test “Veliparib + Phenformin”: C[C@]1(c2nc3c(C(N)=O)cccc3[nH]2)CCCN1 [Veliparib] + N=C(N)NC(=N)NCCc1ccccc1 [Phenformin] (partner 250 µM)
Put shortly:
(§1)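 After 5 days of treatment, lung cancer cells in 1536-well plates were fixed and stained in a single step (final 0.05% Triton X-100, 1% formaldehyde, 1 ug/ml Hoechst) and their nuclei counted on 4× images. Treatment had been applied by pin tool the day after seeding as one drug alone or as a fixed anchor-drug dose with five library-drug doses (not always all listed) in √10 steps. Relative viability is the nuclei count of treated wells divided by that of vehicle wells, and values are medians of duplicate plates.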

Compound in test [1]: COC1=CC=C(C=C1)CN2C=CC3=C2C=C(C=C3)C(=O)NO + CC(=O)Nc1cccc(-n2c(=O)n(C3CC3)c(=O)c3c(Nc4ccc(I)cc4F)n(C)c(=O)c(C)c32)c1 [Trametinib] (partner 0.02 µM)
Put shortly: as §1

Compound in test [2]: COC1=CC=C(C=C1)CN2C=CC3=C2C=C(C=C3)C(=O)NO + O=C(c1cc(Cc2n[nH]c(=O)c3ccccc23)ccc1F)N1CCN(C(=O)C2CC2)CC1 [Olaparib] (partner 8 µM)
Put shortly: as §1

Compound in test [3]: COC1=CC=C(C=C1)CN2C=CC3=C2C=C(C=C3)C(=O)NO + C[C@]1(O)C[C@@H](c2nc(-c3ccc4ccc(-c5ccccc5)nc4c3)c3c(N)nccn32)C1 [Linsitinib] (partner 1 µM)
Put shortly:
as §1

SW 1573: the relative viability worked out at 0.32 with Veliparib + Phenformin (first compound 0.06325 µM); 0.419 in the test with Veliparib + Phenformin (first compound 0.2 µM); 0.324 with Veliparib + Phenformin (first compound 0.6325 µM); 0.4 in the test with Veliparib + Phenformin (first compound 2 µM); 0.539 in test [1] (first compound 0.253 µM); 0.678 in test [1] (first compound 0.8 µM). The relative viability in test [1] (first compound 2.53 µM) is 0.562; in test [1] (first compound 8 µM), 0.37; in test [2] (first compound 0.253 µM), 0.543; in test [2] (first compound 0.8 µM), 0.465; in test [2] (first compound 2.53 µM), 0.432; in test [2] (first compound 8 µM), 0.334. In addition, the relative viability in test [3] (first compound 0.253 µM) came out at 0.835; in test [3] (first compound 0.8 µM), 0.761; in test [3] (first compound 2.53 µM), 0.666; in test [3] (first compound 8 µM), 0.514.
